Results published in ChEMBL document CHEMBL2007661, “Compounds: GSK PKIS; Assays: UNC Frye lab” (2012).
Where “and” joins values, the source holds several entries; their conditions need not be identical. Equal entries are not always repeated.

What was measured:
[1] = target: T1, Inhibitor of nuclear factor kappa-B kinase subunit epsilon (Homo sapiens) (UniProt Q14164); conditions: at 1 µM
T1 sequence (whole entry): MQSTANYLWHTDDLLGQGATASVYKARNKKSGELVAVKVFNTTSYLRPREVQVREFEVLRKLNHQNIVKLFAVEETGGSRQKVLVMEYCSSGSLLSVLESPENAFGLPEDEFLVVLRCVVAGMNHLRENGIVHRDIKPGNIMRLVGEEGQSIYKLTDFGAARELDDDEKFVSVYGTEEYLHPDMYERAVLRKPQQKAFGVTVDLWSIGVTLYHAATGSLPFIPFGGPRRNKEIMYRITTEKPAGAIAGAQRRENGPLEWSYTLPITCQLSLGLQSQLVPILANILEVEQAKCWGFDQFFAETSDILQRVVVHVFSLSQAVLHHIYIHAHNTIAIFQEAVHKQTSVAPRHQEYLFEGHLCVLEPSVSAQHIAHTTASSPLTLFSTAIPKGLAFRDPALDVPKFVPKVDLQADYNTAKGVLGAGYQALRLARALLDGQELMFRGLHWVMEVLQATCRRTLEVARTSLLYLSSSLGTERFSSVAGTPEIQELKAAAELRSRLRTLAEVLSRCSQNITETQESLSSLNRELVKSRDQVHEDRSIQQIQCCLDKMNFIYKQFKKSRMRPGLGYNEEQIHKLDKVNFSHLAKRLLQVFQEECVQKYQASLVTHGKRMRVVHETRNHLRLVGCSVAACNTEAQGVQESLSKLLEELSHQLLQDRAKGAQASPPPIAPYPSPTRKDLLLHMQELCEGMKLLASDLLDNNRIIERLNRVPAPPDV

[2] = target: T2, Inhibitor of nuclear factor kappa-B kinase subunit beta (Homo sapiens) (UniProt O14920); conditions: at 1 µM
T2 sequence (whole entry): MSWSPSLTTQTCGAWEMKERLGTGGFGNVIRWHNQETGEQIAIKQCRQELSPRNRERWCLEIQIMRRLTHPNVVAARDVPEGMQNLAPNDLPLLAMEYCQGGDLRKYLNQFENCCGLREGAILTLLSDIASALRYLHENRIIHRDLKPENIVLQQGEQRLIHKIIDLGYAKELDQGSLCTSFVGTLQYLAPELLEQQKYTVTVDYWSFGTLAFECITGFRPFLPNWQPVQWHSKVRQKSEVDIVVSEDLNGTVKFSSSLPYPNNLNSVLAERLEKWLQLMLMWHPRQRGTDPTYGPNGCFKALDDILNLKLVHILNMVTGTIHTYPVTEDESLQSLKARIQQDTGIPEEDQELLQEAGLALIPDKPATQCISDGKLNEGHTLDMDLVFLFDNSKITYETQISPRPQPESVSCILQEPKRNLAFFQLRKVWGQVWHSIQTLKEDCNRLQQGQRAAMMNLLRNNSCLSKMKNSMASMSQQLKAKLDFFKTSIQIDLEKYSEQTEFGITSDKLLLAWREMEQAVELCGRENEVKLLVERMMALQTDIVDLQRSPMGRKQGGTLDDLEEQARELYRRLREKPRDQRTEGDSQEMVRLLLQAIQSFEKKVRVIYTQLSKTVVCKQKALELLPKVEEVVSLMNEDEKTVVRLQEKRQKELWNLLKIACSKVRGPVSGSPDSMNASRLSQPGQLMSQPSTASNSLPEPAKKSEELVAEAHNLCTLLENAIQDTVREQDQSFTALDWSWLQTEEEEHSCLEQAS

| inhibition [1] | inhibition [2] | SMILES |
| --- | --- | --- |
| 3% and 4% | -1% and -3% | CN(C)CCOc1ccc(-c2cc(-c3ccc4c(c3)CCC4=NO)c(-c3ccncc3)o2)cc1 |
| 3% and 2% | -3% and 2% | CS(=O)(=O)Nc1ccc(-c2ccc3c(NC(=O)C4CC4)n[nH]c3c2)cc1 |
| 1% and -2% | 0% | Cc1ccc(C(=O)NC2CC2)cc1-c1ccc2[nH]ncc2c1 |
| 1% and 4% | 1% and 0% | N#Cc1c(NC(=O)c2ccccc2F)sc2c1CCCC2 |
| 5% and 6% | 2% | Cc1ccc(NC(=O)c2ccnc(N3CCCC3)c2)cc1-c1ccc(C(=O)NCC2CC2)cc1 |
| 1% and 3% | 1% and 4% | C[C@@H](Oc1cc(-n2cnc3ccc(OC[C@@H](O)CO)cc32)sc1C(N)=O)c1ccccc1Cl |
| 26% and 27% | -3% and -2% | Cc1ccc(Nc2ccnc(Nc3cccc(C(N)=O)c3)n2)cc1O |
| 2% and -2% | -5% and 1% | COc1ccc(-c2cc3c(N)ncnc3o2)cc1 |
| 13% | -3% and -4% | O=C1Nc2ccccc2/C1=C1\CCc2cc(O)ccc21 |
| -3% and -1% | -4% and 2% | NS(=O)(=O)c1cccc(-c2cc3ccncc3cc2OCc2ccccc2)c1 |

Continued, compound first:

| SMILES | inhibition [1] | inhibition [2] |
| --- | --- | --- |
| CN1CCN(CCCNc2nc3ccc(Oc4ccc(NC(=O)Nc5cc(C(F)(F)F)ccc5F)cc4)cc3[nH]2)CC1 | -2% | -5% |
| CCN(CC)Cc1ccc(Nc2nccc(-c3cnn4ncccc34)n2)cc1 | 18% and 19% | -9% and -7% |
| COc1cc2ncn(-c3cc(OCc4cccs4)c(C(N)=O)s3)c2cc1OC | 1% | -5% and -6% |
| CC(=O)NCc1cccc(C#Cc2cncnc2Nc2ccc(OCc3cccc(F)c3)c(Cl)c2)c1 | -4% | -3% and -4% |
| CCn1c(-c2nonc2N)nc2c(C#CC(C)(C)O)nc(CN3CCCC3)cc21 | 52% and 51% | -3% and 3% |
| COc1ccc(-c2nn3ncccc3c2-c2ccnc(Nc3ccc(Cl)c(C(F)(F)F)c3)n2)cc1 | -1% and -2% | -4% and -5% |
| CCn1c(-c2nonc2N)nc2c(C#CC(C)(C)O)nc(OC[C@H](N)c3ccccc3)cc21 | 36% and 35% | -4% and 1% |
| CCCNc1cccc(-n2ncc3c(N/N=C/c4ccncc4)ncnc32)c1 | 9% and 10% | -3% and -2% |
